Experimental data: ChEMBL document CHEMBL4342507, “Targeting YAP Degradation by a Novel 1,2,4-Oxadiazole Derivative via Restoration of the Function of the Hippo Pathway” (ACS Med Chem Lett, 2020)
Calls of active or inactive are those of the source. No cut-off for these calls is given here.

Legend:
[1] = target: Hepatocyte growth factor receptor (Homo sapiens) (UniProt P08581); test: Induction of c-MET degradation in human MDA-MB-231 cells assessed as suppression of c-MET expression at 0.05 to 0.6 uM by Western blot analysis; format: cell-based
Chain of Hepatocyte growth factor receptor (Homo sapiens) (P08581 whole entry): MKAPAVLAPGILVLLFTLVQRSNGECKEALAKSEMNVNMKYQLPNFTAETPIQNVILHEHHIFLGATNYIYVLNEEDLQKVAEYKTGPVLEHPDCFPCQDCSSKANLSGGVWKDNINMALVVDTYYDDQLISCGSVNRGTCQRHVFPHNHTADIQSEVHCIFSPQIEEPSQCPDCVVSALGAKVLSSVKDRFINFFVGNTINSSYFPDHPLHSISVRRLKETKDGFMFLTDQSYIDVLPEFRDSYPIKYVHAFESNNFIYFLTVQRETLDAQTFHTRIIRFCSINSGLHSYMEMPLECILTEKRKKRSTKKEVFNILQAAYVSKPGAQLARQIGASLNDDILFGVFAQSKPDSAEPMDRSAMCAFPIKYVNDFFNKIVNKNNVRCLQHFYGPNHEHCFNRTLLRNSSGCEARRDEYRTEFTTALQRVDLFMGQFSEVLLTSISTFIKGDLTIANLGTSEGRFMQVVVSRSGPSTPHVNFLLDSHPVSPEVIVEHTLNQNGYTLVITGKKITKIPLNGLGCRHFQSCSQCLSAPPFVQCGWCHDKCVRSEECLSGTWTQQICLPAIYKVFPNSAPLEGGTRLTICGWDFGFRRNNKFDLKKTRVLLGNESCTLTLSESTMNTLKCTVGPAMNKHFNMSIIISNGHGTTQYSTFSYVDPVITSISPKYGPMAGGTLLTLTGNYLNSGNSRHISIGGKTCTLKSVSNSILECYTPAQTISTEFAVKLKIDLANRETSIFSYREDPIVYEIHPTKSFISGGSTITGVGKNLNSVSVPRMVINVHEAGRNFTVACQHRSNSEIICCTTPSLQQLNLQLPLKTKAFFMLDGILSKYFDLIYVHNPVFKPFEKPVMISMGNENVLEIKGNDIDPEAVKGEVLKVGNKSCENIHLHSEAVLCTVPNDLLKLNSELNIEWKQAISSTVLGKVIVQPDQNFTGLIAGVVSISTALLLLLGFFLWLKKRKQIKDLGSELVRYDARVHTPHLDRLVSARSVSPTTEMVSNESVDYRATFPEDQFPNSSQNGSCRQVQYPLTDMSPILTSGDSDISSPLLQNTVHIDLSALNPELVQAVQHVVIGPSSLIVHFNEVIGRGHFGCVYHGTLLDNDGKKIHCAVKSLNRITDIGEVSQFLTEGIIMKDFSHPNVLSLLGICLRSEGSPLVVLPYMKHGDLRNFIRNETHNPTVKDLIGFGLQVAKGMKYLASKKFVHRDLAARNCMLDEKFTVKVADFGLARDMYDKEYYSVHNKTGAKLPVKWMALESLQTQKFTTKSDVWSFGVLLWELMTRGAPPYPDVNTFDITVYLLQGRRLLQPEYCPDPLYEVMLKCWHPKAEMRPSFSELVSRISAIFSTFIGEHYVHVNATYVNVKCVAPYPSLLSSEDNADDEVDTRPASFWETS

[2] = target: Epidermal growth factor receptor (Homo sapiens) (UniProt P00533); test: Induction of EGFR degradation in human MDA-MB-231 cells assessed as suppression of EGFR expression at 0.05 to 0.6 uM by Western blot analysis; format: cell-based
Chain of Epidermal growth factor receptor (Homo sapiens) (P00533 whole entry): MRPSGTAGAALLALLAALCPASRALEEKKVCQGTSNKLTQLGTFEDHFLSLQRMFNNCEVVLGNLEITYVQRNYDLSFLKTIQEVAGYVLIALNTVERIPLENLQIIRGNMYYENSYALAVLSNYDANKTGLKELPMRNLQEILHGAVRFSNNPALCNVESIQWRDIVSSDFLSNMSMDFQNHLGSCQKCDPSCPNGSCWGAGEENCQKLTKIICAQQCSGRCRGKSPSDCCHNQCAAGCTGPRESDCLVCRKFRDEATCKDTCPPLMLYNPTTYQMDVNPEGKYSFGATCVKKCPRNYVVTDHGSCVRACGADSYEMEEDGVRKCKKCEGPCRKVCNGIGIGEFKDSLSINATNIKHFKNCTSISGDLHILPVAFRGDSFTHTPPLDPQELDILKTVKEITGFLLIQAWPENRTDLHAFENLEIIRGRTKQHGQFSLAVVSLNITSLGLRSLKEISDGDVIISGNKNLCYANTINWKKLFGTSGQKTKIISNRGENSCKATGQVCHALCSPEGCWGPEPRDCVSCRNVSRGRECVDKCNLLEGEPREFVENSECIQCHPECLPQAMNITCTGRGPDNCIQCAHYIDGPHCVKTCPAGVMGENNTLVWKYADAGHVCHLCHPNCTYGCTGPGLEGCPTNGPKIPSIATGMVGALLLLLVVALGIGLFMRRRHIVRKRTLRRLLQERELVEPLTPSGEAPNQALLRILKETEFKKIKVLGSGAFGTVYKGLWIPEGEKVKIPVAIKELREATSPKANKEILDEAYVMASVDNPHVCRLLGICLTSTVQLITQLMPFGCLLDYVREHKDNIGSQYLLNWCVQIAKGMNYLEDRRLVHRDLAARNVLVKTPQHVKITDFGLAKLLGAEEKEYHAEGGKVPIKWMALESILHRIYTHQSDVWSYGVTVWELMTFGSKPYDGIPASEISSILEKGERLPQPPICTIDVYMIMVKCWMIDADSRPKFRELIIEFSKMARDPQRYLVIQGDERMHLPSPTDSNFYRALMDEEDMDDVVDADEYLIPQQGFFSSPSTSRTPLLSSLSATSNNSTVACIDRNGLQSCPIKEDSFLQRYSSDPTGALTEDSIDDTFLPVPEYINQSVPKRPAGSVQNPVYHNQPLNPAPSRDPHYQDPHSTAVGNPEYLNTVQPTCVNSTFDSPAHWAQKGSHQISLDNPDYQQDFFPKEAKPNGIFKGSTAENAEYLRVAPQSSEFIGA

O=C(Nc1cccc(-c2nc(-c3ccc(NC(=O)c4cccnc4)cc3Cl)no2)c1)Nc1ccc(NC(=O)C2CC2)c(C(F)(F)F)c1
Activity [1]: Active | Activity [2]: Active
